The source made the active and inactive calls. The rule behind the calls is not given here.
Test system: CCRIS mutagenicity, Ames/micronucleus/aberration tests
Experiment: CCRIS mutagenicity studies
[1] = Test System: AMES SALMONELLA TYPHIMURIUM, Strain/Indicator: TA98, Metabolic Activation: HAMSTER, LIVER, S-9, AROCLOR 1254, Method: STANDARD PLATE
[2] = Test System: AMES SALMONELLA TYPHIMURIUM, Strain/Indicator: TA98, Metabolic Activation: NONE, Method: STANDARD PLATE
[3] = Test System: AMES SALMONELLA TYPHIMURIUM, Strain/Indicator: TA98, Metabolic Activation: RAT, LIVER, S-9, AROCLOR 1254, Method: STANDARD PLATE
[4] = Test System: AMES SALMONELLA TYPHIMURIUM, Strain/Indicator: TA100, Metabolic Activation: HAMSTER, LIVER, S-9, AROCLOR 1254, Method: STANDARD PLATE
[5] = Test System: AMES SALMONELLA TYPHIMURIUM, Strain/Indicator: TA100, Metabolic Activation: NONE, Method: STANDARD PLATE
[6] = Test System: AMES SALMONELLA TYPHIMURIUM, Strain/Indicator: TA100, Metabolic Activation: RAT, LIVER, S-9, AROCLOR 1254, Method: STANDARD PLATE
[7] = Test System: AMES SALMONELLA TYPHIMURIUM, Strain/Indicator: TA1535, Metabolic Activation: HAMSTER, LIVER, S-9, AROCLOR 1254, Method: STANDARD PLATE
[8] = Test System: AMES SALMONELLA TYPHIMURIUM, Strain/Indicator: TA1535, Metabolic Activation: NONE, Method: STANDARD PLATE
[9] = Test System: AMES SALMONELLA TYPHIMURIUM, Strain/Indicator: TA1535, Metabolic Activation: RAT, LIVER, S-9, AROCLOR 1254, Method: STANDARD PLATE
[10] = Test System: AMES SALMONELLA TYPHIMURIUM, Strain/Indicator: TA1537, Metabolic Activation: HAMSTER, LIVER, S-9, AROCLOR 1254, Method: STANDARD PLATE
[11] = Test System: AMES SALMONELLA TYPHIMURIUM, Strain/Indicator: TA1537, Metabolic Activation: NONE, Method: STANDARD PLATE
[12] = Test System: AMES SALMONELLA TYPHIMURIUM, Strain/Indicator: TA1537, Metabolic Activation: RAT, LIVER, S-9, AROCLOR 1254, Method: STANDARD PLATE
[13] = Test System: AMES SALMONELLA TYPHIMURIUM, Strain/Indicator: TA1538, Metabolic Activation: HAMSTER, LIVER, S-9, AROCLOR 1254, Method: STANDARD PLATE
[14] = Test System: AMES SALMONELLA TYPHIMURIUM, Strain/Indicator: TA1538, Metabolic Activation: NONE, Method: STANDARD PLATE
[15] = Test System: AMES SALMONELLA TYPHIMURIUM, Strain/Indicator: TA1538, Metabolic Activation: RAT, LIVER, S-9, AROCLOR 1254, Method: STANDARD PLATE
[16] = Test System: Mouse lymphoma, Strain/Indicator: L5178Y (tk+/tk-), Metabolic Activation: None, Method: Suspension/plate
[17] = Test System: Mouse lymphoma, Strain/Indicator: L5178Y (tk+/tk-), Metabolic Activation: Rat, Liver, S-9, Aroclor 1254, Method: Suspension/plate
[18] = Test System: AMES SALMONELLA TYPHIMURIUM, Strain/Indicator: TA100, Metabolic Activation: HAMSTER, LIVER, S-9, AROCLOR 1254 (10%), Method: PREINCUBATION
[19] = Test System: AMES SALMONELLA TYPHIMURIUM, Strain/Indicator: TA100, Metabolic Activation: NONE, Method: PREINCUBATION
[20] = Test System: AMES SALMONELLA TYPHIMURIUM, Strain/Indicator: TA100, Metabolic Activation: RAT, LIVER, S-9, AROCLOR 1254 (10%), Method: PREINCUBATION
[21] = Test System: AMES SALMONELLA TYPHIMURIUM, Strain/Indicator: TA1535, Metabolic Activation: HAMSTER, LIVER, S-9, AROCLOR 1254 (10%), Method: PREINCUBATION
[22] = Test System: AMES SALMONELLA TYPHIMURIUM, Strain/Indicator: TA1535, Metabolic Activation: NONE, Method: PREINCUBATION
[23] = Test System: AMES SALMONELLA TYPHIMURIUM, Strain/Indicator: TA1535, Metabolic Activation: RAT, LIVER, S-9, AROCLOR 1254 (10%), Method: PREINCUBATION

C=C1CC[C@H]2C[C@@H]1C2(C)C
mutagenic call (Test System: AMES SALMONELLA TYPHIMURIUM, Strain/Indicator: TA98, Metabolic Activation: HAMSTER, LIVER, S-9, AROCLOR 1254 (2.5-20%), Method: PREINCUBATION): inactive; negative | mutagenic call [1]: inactive; negative | mutagenic call [2]: inactive; negative | mutagenic call [3]: inactive; negative | mutagenic call (Test System: AMES SALMONELLA TYPHIMURIUM, Strain/Indicator: TA100, Metabolic Activation: HAMSTER, LIVER, S-9, AROCLOR 1254 (2.5-20%), Method: PREINCUBATION): inactive; negative | mutagenic call [4]: inactive; negative | mutagenic call [5]: inactive; negative | mutagenic call [6]: inactive; negative | mutagenic call (Test System: AMES SALMONELLA TYPHIMURIUM, Strain/Indicator: TA102, Metabolic Activation: HAMSTER, LIVER, S-9, AROCLOR 1254, Method: PREINCUBATION): inactive; negative | mutagenic call (Test System: AMES SALMONELLA TYPHIMURIUM, Strain/Indicator: TA102, Metabolic Activation: NONE, Method: PREINCUBATION): inactive; negative | mutagenic call (Test System: AMES SALMONELLA TYPHIMURIUM, Strain/Indicator: TA102, Metabolic Activation: RAT, LIVER, S-9, AROCLOR 1254, Method: PREINCUBATION): inactive; negative | mutagenic call [7]: inactive; negative | mutagenic call [8]: inactive; negative | mutagenic call [9]: inactive; negative | mutagenic call [10]: inactive; negative | mutagenic call [11]: inactive; negative | mutagenic call [12]: inactive; negative | mutagenic call [13]: inactive; negative | mutagenic call [14]: inactive; negative | mutagenic call [15]: inactive; negative | mutagenic call [16]: inactive; negative | mutagenic call [17]: inactive; inconcludive (previous evaluation negative)

NC(=O)C1(C(N)=O)OC1C(=O)c1ccccc1 (stereo not drawn)
mutagenic call (Test System: AMES SALMONELLA TYPHIMURIUM, Strain/Indicator: TA98, Metabolic Activation: NONE, Method: DISK ASSAY): inactive; negative | mutagenic call [2]: inactive; negative | mutagenic call (Test System: AMES SALMONELLA TYPHIMURIUM, Strain/Indicator: TA98, Metabolic Activation: RAT, LIVER, S-9, AROCLOR 1254, Method: DISK ASSAY): inactive; negative | mutagenic call [3]: active; positive | mutagenic call [5]: inactive; negative | mutagenic call [6]: inactive; negative

O=C(CCNNC(=O)c1ccncc1)NCc1ccccc1
mutagenic call [2]: inactive; negative | mutagenic call [3]: inactive; negative | mutagenic call [5]: active; positive | mutagenic call [6]: active; positive | mutagenic call [8]: active; positive | mutagenic call [9]: active; positive | mutagenic call [11]: inactive; negative | mutagenic call [12]: inactive; negative

CNC(=O)N(C)C(=O)ON
mutagenic call [2]: active; positive | mutagenic call [5]: active; positive

ClC(Cl)(Cl)CC1CO1 (stereo not drawn)
mutagenic call [18]: inactive; negative | mutagenic call [19]: active; positive | mutagenic call [20]: inactive; negative | mutagenic call [21]: inactive; negative | mutagenic call [22]: inactive; negative | mutagenic call [23]: inactive; negative

CC(C)(C)OOC(=O)c1ccccc1
mutagenic call (Test System: AMES SALMONELLA TYPHIMURIUM, Strain/Indicator: TA98, Metabolic Activation: HAMSTER, LIVER, S-9, AROCLOR 1254 (10%), Method: PREINCUBATION): active; positive | mutagenic call (Test System: AMES SALMONELLA TYPHIMURIUM, Strain/Indicator: TA98, Metabolic Activation: NONE, Method: PREINCUBATION): active; positive | mutagenic call (Test System: AMES SALMONELLA TYPHIMURIUM, Strain/Indicator: TA98, Metabolic Activation: RAT, LIVER, S-9, AROCLOR 1254 (10%), Method: PREINCUBATION): active; positive | mutagenic call [18]: active; positive | mutagenic call [19]: inactive; negative | mutagenic call [20]: inactive; negative | mutagenic call [21]: inactive; negative | mutagenic call [22]: inactive; negative | mutagenic call [23]: inactive; negative | mutagenic call (Test System: AMES SALMONELLA TYPHIMURIUM, Strain/Indicator: TA1537, Metabolic Activation: HAMSTER, LIVER, S-9, AROCLOR 1254 (10%), Method: PREINCUBATION): active; positive | mutagenic call (Test System: AMES SALMONELLA TYPHIMURIUM, Strain/Indicator: TA1537, Metabolic Activation: NONE, Method: PREINCUBATION): active; positive | mutagenic call (Test System: AMES SALMONELLA TYPHIMURIUM, Strain/Indicator: TA1537, Metabolic Activation: RAT, LIVER, S-9, AROCLOR 1254 (10%), Method: PREINCUBATION): active; positive

CN(CO)N=O
mutagenic call (Test System: CHINESE HAMSTER V-79, Strain/Indicator: V-79/OUABAIN, Metabolic Activation: NONE): active; positive

CC(C)c1ccccc1OC(=O)N(C)N=O
mutagenic call (Test System: E. COLI WP2, Strain/Indicator: WP2, Metabolic Activation: NONE, Method: STANDARD PLATE): active; positive

O=C/C=C\C=O
mutagenic call (End Point: In vitro micronucleus, Test System: Mouse lymphoma L5178Y cells, Metabolic Activation: None): active; positive | mutagenic call (Test System: AMES SALMONELLA TYPHIMURIUM, Strain/Indicator: TA104, Metabolic Activation: NONE, Method: PREINCUBATION): active; positive | mutagenic call (Test System: Mouse lymphoma, Strain/Indicator: L5178Y (tk+/tk-), Metabolic Activation: None, Method: Preincubation): active; positive

O=C(C(=O)c1ccccc1)c1ccccc1
mutagenic call [1]: inactive; negative | mutagenic call [2]: inactive; negative | mutagenic call [3]: inactive; negative | mutagenic call [4]: inactive; negative | mutagenic call [5]: inactive; negative | mutagenic call [6]: inactive; negative | mutagenic call [7]: inactive; negative | mutagenic call [8]: inactive; negative | mutagenic call [9]: inactive; negative | mutagenic call [10]: inactive; negative | mutagenic call [11]: inactive; negative | mutagenic call [12]: inactive; negative | mutagenic call [13]: inactive; negative | mutagenic call [14]: inactive; negative | mutagenic call [15]: inactive; negative | mutagenic call [16]: inactive; inconclusive (previous evaluation negative) | mutagenic call [17]: inactive; negative

Reference: PubChem BioAssay AID1259407 (Chemical Carcinogenesis Research Information System (CCRIS), 2018)
